Laboratory results: patent US20220280603A1, “TARGETING OF THE CYTOSKELETON AS A THERAPEUTIC APPROACH FOR NEURODEGENERATIVE DISEASE” (University of Massachusetts, priority 2019, published 2022)
Entries after “also recorded” stand apart in the source; their conditions may differ.

Experiments:
[1] = test system: primary motor neurons (MNs); assay: Actin depolymerization assay: immunofluorescence of NCT factors in Latrunculin A treated motor neurons; assay type: cell-based, mouse; conditions: 0.1 mg/L Latrunculin A for 3 days
Method: Primary motor neurons (MNs) were isolated from E12.5 mouse embryonic spinal cords dissociated in 0.1% trypsin (Worthington) at 37° C. for 12 minutes. MNs were purified using a 6% Optiprep (Sigma-Aldrich) density gradient and plated on glass coverslips coated with 0.5 g/L poly-ornithine (Sigma-Aldrich) and laminin (Thermo Fisher). Cells were grown at 37° C. and 5% CO2 in Neurobasal medium (Thermo Fisher) supplemented with 0.25% Glutamax, 2% B27, 2% horse serum, and 10 ng/ml BDNF, GDNF, and CNTF. MNs at 2 days in vitro (DIV) were transfected using 1.75 μl NeuroMag reagent (OZ Biosciences)+0.5 μg DNA. Complete growth medium was replaced with serum free neurobasal medium 1 hour prior and after transfection. The paramagnetic nanobeads used for transfection can linger inside the cell and in the extracellular space for several days and can be detected as DAPI positive dots. The V5-PFN1 plasmids were described in Wu, C. H. et al. Mutations in the profilin 1 gene cause familial amyotrophic lateral sclerosis. Nature 488, 499-503 (2012). The (G4C2)80 (SEQ ID NO:12). construct was described in Almeida, S. et al. Modeling key pathological features of frontotemporal dementia with C9ORF72 repeat expansion in iPSC-derived human neurons. Acta Neuropathol 126, 385-399 (2013). For the GFP-PFN1 constructs, WT or mutant PFN1 was PCR amplified from the V5 constructs and cloned in the pEGFP-C1 backbone using BamHI sites. The FH1-FH2 domains of murine formin mDia1 (amino acid residues 553-1192) were PCR amplified using specific primers and cloned into the pEGFP-C1 plasmid using XhoI and BamHI restriction sites. GFP or GFP-mDia1 were co-transfected in a 1:2 ratio with PFN1 or C9ORF72 plasmids. Mock transfection controls were performed by subjecting the cells to all the steps of transfection without adding any plasmid DNA. For actin depolymerization assays, 2 DIV MNs were treated with 0.1 mg/L Latrunculin A (Cayman) for 3 days. For nuclear export inhibition, MNs were treated with 50 nM KPT-276 (Selleck) or equal volume of DMSO (Sigma Aldrich) 1 day after transfection. For formin induction, MNs were treated with 0.1 μM IMM01 (EMD Millipore) for 24 hr before fixation at 6 DIV.
Cells were fixed with 4% paraformaldehyde for 15 minutes. Fixed motor neurons were treated with hot 10 mM citrate buffer, pH 6 for 20 minutes before permeabilization with 0.2% Triton-X 100 for 5 minutes. […]
(§1) Immunofluorescence images were deconvolved using an adaptative blind deconvolution algorithm (Autoquant X3, Media Cybernetics) before analysis. To measure fluorescence intensities, the signals were thresholded and the resulting integrated densities were normalized on the area of the selected region (e.g. cell body, nucleus). […]

[2] = test system: primary motor neurons (MNs); assay: Cell death / apoptosis in treated motor neurons; assay type: cell-based, mouse
Method: (§2) Primary motor neurons (MNs) were isolated from E12.5 mouse embryonic spinal cords dissociated in 0.1% trypsin (Worthington) at 37° C. for 12 minutes. MNs were purified using a 6% Optiprep (Sigma-Aldrich) density gradient and plated on glass coverslips coated with 0.5 g/L poly-ornithine (Sigma-Aldrich) and laminin (Thermo Fisher). Cells were grown at 37° C. and 5% CO2 in Neurobasal medium (Thermo Fisher) supplemented with 0.25% Glutamax, 2% B27, 2% horse serum, and 10 ng/ml BDNF, GDNF, and CNTF. MNs at 2 days in vitro (DIV) were transfected using 1.75 μl NeuroMag reagent (OZ Biosciences)+0.5 μg DNA. Complete growth medium was replaced with serum free neurobasal medium 1 hour prior and after transfection. The paramagnetic nanobeads used for transfection can linger inside the cell and in the extracellular space for several days and can be detected as DAPI positive dots. The V5-PFN1 plasmids were described in Wu, C. H. et al. Mutations in the profilin 1 gene cause familial amyotrophic lateral sclerosis. Nature 488, 499-503 (2012). The (G4C2)80 (SEQ ID NO:12). construct was described in Almeida, S. et al. Modeling key pathological features of frontotemporal dementia with C9ORF72 repeat expansion in iPSC-derived human neurons. Acta Neuropathol 126, 385-399 (2013). […]

[3] = test system: primary motor neurons (MNs) expressing C71G PFN1; assay: Axon length and outgrowth analysis; assay type: cell-based, mouse
Method: Motor neurons were co-transfected as outlined above with green fluorescent protein (GFP) and V5-tagged PFN1 constructs in a 1:2 ratio. KPT-276 (50 nM) or equal volumes of DMSO were added to the culture medium 1 day after transfection and maintained throughout the experiment for a total of 3 days. Cells were fixed and stained to detect V5-PFN1 expression 4 days after transfection. Cells were imaged as individual focal planes using a 10× lens. GFP was used to identify transfected cells and highlight the whole cell structure. […]
Immunofluorescence images were deconvolved using an adaptative blind deconvolution algorithm (Autoquant X3, Media Cybernetics) before analysis. To measure fluorescence intensities, the signals were thresholded and the resulting integrated densities were normalized on the area of the selected region (e.g. cell body, nucleus). […] For NCT dynamics, the fluorescence intensity of S-mCherry was measured in the nucleus using ImageJ and normalized to the background for every time point. […] For the analysis of axonal fluorescence intensities, a 100 μm long region of the proximal axon was measured in all conditions. Axon lengths were measured using the ImageJ plugin NeuronJ 60. […] The rate of axon outgrowth was measured using the ImageJ plugin MTrackJ by tracking the movement of the growth cone in all fields. […]

[4] = test system: primary motor neurons (MNs) expressing C71G PFN1; assay: Immunofluorescence of nuclear pore/NCT factors and TDP-43 in motor neurons expressing mutant PFN1; assay type: cell-based, mouse; conditions: vs DMSO
Method: as §2, with “(2013). For the GFP-PFN1 constructs, WT or mutant PFN1 was PCR amplified from the V5 constructs and cloned in the pEGFP-C1 backbone using BamHI sites. The FH1-FH2 domains of murine formin mDia1 (amino acid residues 553-1192) were PCR amplified using specific primers and cloned into the pEGFP-C1 plasmid using XhoI and BamHI restriction sites. GFP or GFP-mDia1 were co-transfected in a 1:2 ratio with PFN1 or C9ORF72 plasmids.” for “(2013).”
as §1

[5] = test system: Neurofilament L mRNA in MNs expressing C71G PFN1; assay: Fluorescence in situ hybridization of Neurofilament L mRNA; assay type: cell-based, mouse; conditions: IMM01 vs DMSO
Method: as §2, with “C.” for “C. H. et al. Mutations in the profilin 1 gene cause familial amyotrophic lateral sclerosis. Nature 488, 499-503 (2012). The (G4C2)80 (SEQ ID NO:12). construct was described in Almeida, S. et al. Modeling key pathological features of frontotemporal dementia with C9ORF72 repeat expansion in iPSC-derived human neurons. Acta Neuropathol 126, 385-399 (2013).”
Immunofluorescence images were deconvolved using an adaptative blind deconvolution algorithm (Autoquant X3, Media Cybernetics) before analysis. To measure fluorescence intensities, the signals were thresholded and the resulting integrated densities were normalized on the area of the selected region (e.g. cell body, nucleus). […] For NCT dynamics, the fluorescence intensity of S-mCherry was measured in the nucleus using ImageJ and normalized to the background for every time point. […]

[6] = test system: fibroblasts from ALS patients carrying C9ORF72 repeat expansions; assay: FISH for C9ORF72 RNA nuclear foci in patient fibroblasts; assay type: cell-based, human; conditions: IMM01 treatment
Method: Fibroblasts were obtained from skin biopsies of 3 ALS patients carrying mutations in C9ORF72 gene and of 3 healthy donors, sex- and age-matched with ALS cases, after informed consent and approval by the IRCCS Istituto Auxologico Italiano ethics committee. C9ORF72 mutation was validated in primary fibroblasts by repeat-primed PCR and repeat expansion size determined by Southern blot analysis (range 600-1500 units). Fibroblasts were grown in RPMI 1640 medium (EuroClone) containing 2 g/L glucose and supplemented with 10% FBS (Sigma Aldrich), 2 mM L-glutamine, 2.5 μg/ml amphotericin B (Sigma Aldrich), 100 units/ml penicillin and 100 μg/ml streptomycin (Gibco). 10,000 cell/well were seeded on glass coverslip in 24-well plates and after 24 hours, 50% of medium was replaced with fresh medium and IMM01 (Sigma Aldrich) at the final concentration of 0.1 μM. After a 24-hour treatment, cells were fixed with 4% paraformaldehyde for 20 minutes, permeabilized with 0.3% Triton X-100/1×PBS for 5 minutes and processed for immunofluorescence as described below.
Motor neurons were fixed in 4% RNase-free paraformaldehyde for 15 minutes and stored in 70% ethanol at 4° C. overnight. […]

[7] = test system: fibroblasts from ALS patients carrying C9ORF72 repeat expansions; assay: Immunofluorescence of RanGAP1 and FG-Nups in C9ORF72-ALS patient fibroblasts; assay type: cell-based, human; conditions: 0.1 μM IMM01 for 24 hours, vs DMSO
Method: Fibroblasts were obtained from skin biopsies of 3 ALS patients carrying mutations in C9ORF72 gene and of 3 healthy donors, sex- and age-matched with ALS cases, after informed consent and approval by the IRCCS Istituto Auxologico Italiano ethics committee. C9ORF72 mutation was validated in primary fibroblasts by repeat-primed PCR and repeat expansion size determined by Southern blot analysis (range 600-1500 units). Fibroblasts were grown in RPMI 1640 medium (EuroClone) containing 2 g/L glucose and supplemented with 10% FBS (Sigma Aldrich), 2 mM L-glutamine, 2.5 μg/ml amphotericin B (Sigma Aldrich), 100 units/ml penicillin and 100 μg/ml streptomycin (Gibco). […]
Immunofluorescence images were deconvolved using an adaptative blind deconvolution algorithm (Autoquant X3, Media Cybernetics) before analysis. To measure fluorescence intensities, the signals were thresholded and the resulting integrated densities were normalized on the area of the selected region (e.g. cell body, nucleus). […] For NCT dynamics, the fluorescence intensity of S-mCherry was measured in the nucleus using ImageJ and normalized to the background for every time point. […] For the analysis of axonal fluorescence intensities, a 100 μm long region of the proximal axon was measured in all conditions. Axon lengths were measured using the ImageJ plugin NeuronJ 60. […]

SMILES: C/C1=C/C(=O)O[C@@H]2C[C@@H](CC[C@H](C)/C=C\C=C\CC1)O[C@@](O)([C@@H]1CSC(=O)N1)C2 [Latrunculin A]
- localization of FG-Nups [1]: severe mislocalization
- localization of Ran [1]: severe mislocalization; also recorded: disrupted
- localization of RanGAP1 [1]: severe mislocalization; also recorded: disrupted
- nuclear morphology [1]: smaller nuclei with condensed DNA
- cell death or apoptosis ([2]; MNs, Latrunculin A treatment conditions (0.1 mg/L, 3 days), data not shown): No increased cell death or apoptosis was observed

SMILES: O=C(/C=C\n1cnc(-c2cc(C(F)(F)F)cc(C(F)(F)F)c2)n1)N1CC(F)(F)C1 [KPT-276]
- axon length ([3]; 50 nM KPT-276 for 3 days, vs DMSO): fully rescued the defect
- rate of axon growth (outgrowth) by live cell imaging ([3]; 50 nM KPT-276 ~18-24 hours, imaged over 1 hour): full rescue of the outgrowth defects
- C:N ratio of TDP-43 (TDP-43 cytoplasmic mislocalization) ([4]; 50 nM KPT-276 6 hours prior to fixation): fully rescue TDP-43 cytoplasmic mislocalization; also recorded: rescues C:N ratio of TDP-43

SMILES: CC(C)(C)NC(=S)N/N=C/c1ccc(O)cc1O [IMM01]
- axonal localization of Nef1 mRNA [5]: rescue the defects in the axonal localization; also recorded: rescue of mislocalization
- propensity of the cell to form C9ORF72-positive nuclear foci [6]: without changes to the propensity of the cell to form C9ORF72-positive nuclear foci
- localization of FG-Nups [7]: rescued defects in the localization; also recorded: significantly rescued the defects
- localization of RanGAP1 [7]: rescued defects in the localization; also recorded: significantly rescued the defects
- FG-Nups localization at the nuclear envelope ([4]; 0.1 μM IMM01 for 24 hours): rescue of FG-Nups defective localization at the nuclear envelope; also recorded: rescue of mislocalization
- Ran gradient (Ran localization) ([4]; 0.1 μM IMM01 for 24 hours): rescue of mislocalization
- induction of apoptosis ([2]; primary MNs, 0.1 μM IMM01 for 24 hours): No induction of apoptosis was detected
